Tested on: human pancreatic lipase
Assay: pH dependence of human pancreatic lipase activity in the presence of bile acids (diglyceride substrate, UV method)
Assay type: biochemical
Procedure: After weighing 1,2-dioleoyl glycerol (DODG) (manufactured by Nippon Fine Chemical Co., Ltd.) to attain a concentration of 9.32 mmol/L when dissolved, 1% polyoxyethylene (10) nonyl phenyl ether (NPE) (manufactured by Wako Pure Chemical Industries Ltd.) containing 1.66 mmol/L of MES (manufactured by Dojindo Laboratories) was added thereto to be dissolved therein by stirring at 37° C. for 2 hours, and the resultant was allowed to stand still in ice for 2 hours or more. The thus obtained solution was used as a substrate original liquid.
The above-described diglyceride original liquid was used for preparing a “substrate stock solution” having the following composition:
A “first reaction solution (R-1)” having the following composition was prepared:
A “second reaction solution (R-2)” having the following composition was prepared:
A “second reaction solution (R-2) for sample blank” having the following composition was prepared:
A mixture of the substrate stock solution and the R-1 in a proportion of 1:2 was used as a first reagent. The R-2 was directly used as a second reagent. As a sample, pooled serum or a control sample (a control containing a pancreatic lipase) was used. A proportion in amount among the sample, the first reagent and the second reagent was set as sample:first reagent:second reagent of 0.01 ml:0.18 ml:0.06 ml. The sample was added to the first reagent, the resultant mixture was heated at 37° C. for 5 minutes, the second reagent was added thereto, and a change rate of an absorbance at 340 nm based on reduced NADP was obtained at 37° C. from 3 minutes after the addition of the second reagent to 4 minutes after the addition, and then, the lipase activity was calculated by using a molecular extinction coefficient of 6300 L/mol·cm of the reduced NADP. Besides, as a sample blank, saline was used instead of a sample, an absorbance was measured by using the reagent for sample blank obtained by removing MGLPII from the second reagent, and a difference between the thus measured two values was defined as an enzyme activity value. For the measurement, Hitachi automatic analyzer Model H7170 or H7080 was used.
As a conjugated bile acid to be added to the R-1, sodium taurodeoxycholate (NaTDCA), sodium glycodeoxycholate (NaGDCA), sodium glycochenodeoxycholate (NaGCDCA), sodium taurochenodeoxycholate (NaTCDCA), sodium glycocholate (NaGCA), sodium taurocholate (NaTCA) and sodium tauroursodeoxycholate (NaTUDCA) all in a concentration of 40 mmol/L were selected, the R-1 was adjusted, by using BES (manufactured by Dojindo Laboratories) respectively to pH 6.8, 7.0, 7.2, 7.4, 7.8, and 8.0, and the human pancreatic lipase activity was measured by using these. The pH of the R-2 was adjusted to be equal to that of the R-1.
It is noted that the concentration of each non-conjugated bile acid was set to be 24 mmol/L in the R-1. Besides, BES was used for adjusting pH to 7.2, 7.6, 7.8 and 8.0, and Bicine was used for adjusting pH to 8.2 and 8.5.
Similarly to Example 1, a mixture of the substrate stock solution and the R-1 in a proportion of 1:2 was used as a first reagent. Except for this, the measurement was performed in the same manner as in Example 1.
Besides, NaTCA was also combined with a conjugated bile acid, NaTDCA, to examine the pH for giving a maximum value of the human pancreatic lipase activity (the apparent optimum pH). It is noted that a BES buffer was used for adjusting pH to 6.9, 7.2 and 7.7, and a Bicine buffer was used for adjusting pH to 7.95 and 8.2. In each of the combinations of NaGCA/NaDCA, NaTCA/NaDCA, NaTUDCA/NaDCA and NaTCA/NaTDCA, the concentration of each bile acid was set to 20 mmol/L in the R-1. With respect to the combination of NaTCA and NaTDCA, a concentration of 40 mmol/L of NaTDCA was used as a control.
The compositions of the reagents and the measurement operation were the same as those of Example 2.

optimum pH (NaTDCA 40 mmol/L control of Example 2): about 7.1 | pH for giving a maximum value of the human pancreatic lipase activity (apparent optimum pH) (pooled serum, conjugated bile acid singly, 40 mmol/L in R-1, BES pH 6.8-8.0): about 7
SMILES: C[C@H](CCC(=O)NCCS(=O)(=O)[O-])[C@H]1CC[C@H]2[C@@H]3CC[C@@H]4C[C@H](O)CC[C@]4(C)[C@H]3C[C@H](O)[C@]12C.[Na+] [NaTDCA, sodium taurodeoxycholate]
